According to the kinase profiling compilation of Christmann-Franck et al. (2016):

Key:
Assay in all cases: radiometric filter-binding kinase assay, Kinase HotSpot
Settings in all cases: compound 0.5 µM; ATP 10 µM
RPS6KA4 KD2 (human) = RPS6KA4 KD2 (human) (UniProt O75676)
TGFBR1 (human) = TGFBR1 (human) (UniProt P36897)
SGK2 (human) = SGK2 (human) (UniProt Q9HBY8)
ACVR1 (human) = ACVR1 (human) (UniProt Q04771)
NEK1 (human) = NEK1 (human) (UniProt Q96PY6)
RPS6KA1 KD1 KD2 (human) = RPS6KA1 KD1 KD2 (human) (UniProt Q15418)
IKBKB (human) = IKBKB (human) (UniProt O14920)
DCLK2 (human) = DCLK2 (human) (UniProt Q8N568)
CSNK1G1 (human) = CSNK1G1 (human) (UniProt Q9HCP0)
SRMS (human) = SRMS (human) (UniProt Q9H3Y6)
BLK (human) = BLK (human) (UniProt P51451)
PDGFRB (human) = PDGFRB (human) (UniProt P09619)
FGR (human) = FGR (human) (UniProt P09769)
CDK9 CCNT1 (human) = CDK9 CCNT1 (human) (UniProt P50750+O60563)
SRPK1 (human) = SRPK1 (human) (UniProt Q96SB4)
RPS6KA6 KD1 KD2 (human) = RPS6KA6 KD1 KD2 (human) (UniProt Q9UK32)
SRPK3 (human) = SRPK3 (human) (UniProt Q9UPE1)
CSNK2A1 (human) = CSNK2A1 (human) (UniProt P68400)
GRK5 (human) = GRK5 (human) (UniProt P34947)
BRSK1 (human) = BRSK1 (human) (UniProt Q8TDC3)
CDK6 CCND1 (human) = CDK6 CCND1 (human) (UniProt Q00534+P24385)
CAMK1G (human) = CAMK1G (human) (UniProt Q96NX5)
ABL1 (human) = ABL1 (human) (UniProt P00519)
CDK4 CCND3 (human) = CDK4 CCND3 (human) (UniProt P30281+P11802)
TXK (human) = TXK (human) (UniProt P42681)
MAPK12 (human) = MAPK12 (human) (UniProt P53778)
ADRBK2 (human) = ADRBK2 (human) (UniProt P35626)
NEK6 (human) = NEK6 (human) (UniProt Q9HC98)
MAPKAPK5 (human) = MAPKAPK5 (human) (UniProt Q8IW41)
TYRO3 (human) = TYRO3 (human) (UniProt Q06418)
STK3 (human) = STK3 (human) (UniProt Q13188)
AKT3 (human) = AKT3 (human) (UniProt Q9Y243)
NEK4 (human) = NEK4 (human) (UniProt P51957)
EPHA7 (human) = EPHA7 (human) (UniProt Q15375)
DYRK1B (human) = DYRK1B (human) (UniProt Q9Y463)
CDK1 CCNB1 (human) = CDK1 CCNB1 (human) (UniProt P06493+P14635)
MAPK1 (human) = MAPK1 (human) (UniProt P28482)
DYRK4 (human) = DYRK4 (human) (UniProt Q9NR20)
EPHA5 (human) = EPHA5 (human) (UniProt P54756)
DAPK1 (human) = DAPK1 (human) (UniProt P53355)
PRKCH (human) = PRKCH (human) (UniProt P24723)
Chain of PRKCH (human) (P24723 whole entry, looked up): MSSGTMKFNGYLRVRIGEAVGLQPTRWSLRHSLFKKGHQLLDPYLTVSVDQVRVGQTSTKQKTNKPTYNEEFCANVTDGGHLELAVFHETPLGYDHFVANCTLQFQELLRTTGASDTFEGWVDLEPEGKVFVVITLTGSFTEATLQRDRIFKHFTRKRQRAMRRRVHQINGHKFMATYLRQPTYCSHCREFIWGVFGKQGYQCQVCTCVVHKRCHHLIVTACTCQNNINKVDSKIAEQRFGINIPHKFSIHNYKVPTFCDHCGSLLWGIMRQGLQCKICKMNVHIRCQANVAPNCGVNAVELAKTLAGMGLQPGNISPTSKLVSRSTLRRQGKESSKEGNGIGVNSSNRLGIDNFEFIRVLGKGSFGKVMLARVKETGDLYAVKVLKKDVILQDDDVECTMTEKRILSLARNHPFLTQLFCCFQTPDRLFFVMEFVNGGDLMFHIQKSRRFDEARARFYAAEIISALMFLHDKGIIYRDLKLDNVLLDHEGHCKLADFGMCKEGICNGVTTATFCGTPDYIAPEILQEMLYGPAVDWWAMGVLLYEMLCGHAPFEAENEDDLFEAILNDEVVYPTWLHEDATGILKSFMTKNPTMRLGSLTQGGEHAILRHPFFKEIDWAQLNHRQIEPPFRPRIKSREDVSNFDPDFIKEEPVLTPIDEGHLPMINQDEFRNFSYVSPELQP

Chain of ABL1 (human) (P00519 whole entry, looked up): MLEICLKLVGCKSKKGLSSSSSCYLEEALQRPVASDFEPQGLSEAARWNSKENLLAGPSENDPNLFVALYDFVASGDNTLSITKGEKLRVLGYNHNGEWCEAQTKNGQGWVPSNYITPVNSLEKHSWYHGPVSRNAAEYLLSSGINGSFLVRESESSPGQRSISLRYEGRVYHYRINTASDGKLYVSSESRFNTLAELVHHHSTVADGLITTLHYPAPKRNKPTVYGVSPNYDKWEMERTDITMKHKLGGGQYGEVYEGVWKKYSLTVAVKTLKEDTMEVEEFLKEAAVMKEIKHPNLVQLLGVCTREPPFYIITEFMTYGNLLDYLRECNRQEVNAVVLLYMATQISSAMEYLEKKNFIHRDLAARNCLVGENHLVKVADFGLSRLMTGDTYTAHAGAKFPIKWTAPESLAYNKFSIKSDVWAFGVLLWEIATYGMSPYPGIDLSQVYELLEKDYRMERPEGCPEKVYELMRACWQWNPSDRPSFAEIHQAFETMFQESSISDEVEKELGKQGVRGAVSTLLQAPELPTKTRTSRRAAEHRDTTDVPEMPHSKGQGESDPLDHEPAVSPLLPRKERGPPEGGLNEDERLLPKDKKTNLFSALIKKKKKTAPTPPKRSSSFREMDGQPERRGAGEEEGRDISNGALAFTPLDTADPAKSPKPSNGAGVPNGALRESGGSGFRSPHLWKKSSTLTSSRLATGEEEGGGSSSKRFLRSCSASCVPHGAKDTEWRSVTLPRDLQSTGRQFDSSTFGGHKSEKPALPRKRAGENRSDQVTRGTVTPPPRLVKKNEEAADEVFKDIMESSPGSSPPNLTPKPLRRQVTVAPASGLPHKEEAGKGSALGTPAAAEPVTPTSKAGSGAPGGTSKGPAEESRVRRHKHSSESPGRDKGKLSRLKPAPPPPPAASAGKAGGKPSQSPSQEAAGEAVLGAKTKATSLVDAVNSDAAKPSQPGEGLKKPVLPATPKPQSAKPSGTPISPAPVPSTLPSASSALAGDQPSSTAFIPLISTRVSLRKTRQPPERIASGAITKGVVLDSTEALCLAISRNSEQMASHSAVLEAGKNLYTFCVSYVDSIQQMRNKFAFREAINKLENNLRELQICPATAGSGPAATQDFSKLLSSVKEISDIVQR
Chain of CDK4 CCND3 (human) (P11802 whole entry, looked up): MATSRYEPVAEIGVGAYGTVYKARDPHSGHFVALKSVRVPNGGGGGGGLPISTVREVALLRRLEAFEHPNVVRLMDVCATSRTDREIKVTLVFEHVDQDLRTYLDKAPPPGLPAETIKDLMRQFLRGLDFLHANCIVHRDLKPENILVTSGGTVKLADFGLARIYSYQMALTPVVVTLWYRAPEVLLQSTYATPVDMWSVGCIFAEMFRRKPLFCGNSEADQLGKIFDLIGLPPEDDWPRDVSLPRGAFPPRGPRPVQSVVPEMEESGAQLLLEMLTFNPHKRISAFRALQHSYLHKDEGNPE
Chain of CDK4 CCND3 (human) (P30281 whole entry, looked up): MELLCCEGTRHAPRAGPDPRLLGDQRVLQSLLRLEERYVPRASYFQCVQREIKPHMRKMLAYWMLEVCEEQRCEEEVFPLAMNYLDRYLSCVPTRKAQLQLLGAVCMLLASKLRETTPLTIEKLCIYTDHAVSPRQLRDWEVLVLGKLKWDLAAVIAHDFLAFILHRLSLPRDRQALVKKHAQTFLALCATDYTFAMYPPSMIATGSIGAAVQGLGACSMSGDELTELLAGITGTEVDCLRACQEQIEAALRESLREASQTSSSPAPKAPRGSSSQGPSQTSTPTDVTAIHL
Chain of TXK (human) (P42681 whole entry, looked up): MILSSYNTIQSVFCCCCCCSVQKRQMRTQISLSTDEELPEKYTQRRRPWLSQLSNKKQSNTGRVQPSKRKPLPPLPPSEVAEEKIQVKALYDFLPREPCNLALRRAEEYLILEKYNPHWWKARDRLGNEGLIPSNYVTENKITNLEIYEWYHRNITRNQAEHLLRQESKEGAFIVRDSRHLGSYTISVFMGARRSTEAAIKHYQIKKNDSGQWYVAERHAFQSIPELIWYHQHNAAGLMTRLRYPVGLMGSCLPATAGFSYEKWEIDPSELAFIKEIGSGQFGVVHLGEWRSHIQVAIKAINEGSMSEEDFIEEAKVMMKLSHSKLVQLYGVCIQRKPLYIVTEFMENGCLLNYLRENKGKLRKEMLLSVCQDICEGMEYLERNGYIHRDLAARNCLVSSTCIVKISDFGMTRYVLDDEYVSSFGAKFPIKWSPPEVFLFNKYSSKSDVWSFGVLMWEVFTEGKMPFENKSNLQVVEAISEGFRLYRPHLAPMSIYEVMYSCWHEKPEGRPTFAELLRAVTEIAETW
Chain of SGK2 (human) (Q9HBY8 whole entry, looked up): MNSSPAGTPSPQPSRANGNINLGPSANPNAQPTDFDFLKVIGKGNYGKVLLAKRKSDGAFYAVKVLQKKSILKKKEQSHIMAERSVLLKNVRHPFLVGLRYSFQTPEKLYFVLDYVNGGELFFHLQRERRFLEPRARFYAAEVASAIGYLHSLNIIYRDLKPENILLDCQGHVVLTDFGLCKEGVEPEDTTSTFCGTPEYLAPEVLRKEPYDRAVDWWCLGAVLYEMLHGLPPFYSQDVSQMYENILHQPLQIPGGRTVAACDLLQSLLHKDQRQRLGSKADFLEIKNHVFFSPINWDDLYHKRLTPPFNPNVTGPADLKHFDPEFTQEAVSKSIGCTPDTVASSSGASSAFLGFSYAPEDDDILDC
Chain of STK3 (human) (Q13188 whole entry, looked up): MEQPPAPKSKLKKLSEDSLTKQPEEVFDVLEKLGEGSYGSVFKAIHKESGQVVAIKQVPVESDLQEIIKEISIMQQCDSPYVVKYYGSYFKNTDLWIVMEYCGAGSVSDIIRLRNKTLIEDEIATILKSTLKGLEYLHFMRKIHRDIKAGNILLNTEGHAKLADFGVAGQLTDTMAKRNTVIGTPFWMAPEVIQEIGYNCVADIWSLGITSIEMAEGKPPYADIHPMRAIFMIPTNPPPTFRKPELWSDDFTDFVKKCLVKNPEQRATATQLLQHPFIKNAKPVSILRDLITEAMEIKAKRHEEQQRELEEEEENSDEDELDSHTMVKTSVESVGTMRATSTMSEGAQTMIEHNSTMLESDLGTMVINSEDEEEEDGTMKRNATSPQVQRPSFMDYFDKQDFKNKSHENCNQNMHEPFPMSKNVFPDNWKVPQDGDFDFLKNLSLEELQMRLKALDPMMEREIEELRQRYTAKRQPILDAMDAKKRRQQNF
Chain of CSNK1G1 (human) (Q9HCP0 whole entry, looked up): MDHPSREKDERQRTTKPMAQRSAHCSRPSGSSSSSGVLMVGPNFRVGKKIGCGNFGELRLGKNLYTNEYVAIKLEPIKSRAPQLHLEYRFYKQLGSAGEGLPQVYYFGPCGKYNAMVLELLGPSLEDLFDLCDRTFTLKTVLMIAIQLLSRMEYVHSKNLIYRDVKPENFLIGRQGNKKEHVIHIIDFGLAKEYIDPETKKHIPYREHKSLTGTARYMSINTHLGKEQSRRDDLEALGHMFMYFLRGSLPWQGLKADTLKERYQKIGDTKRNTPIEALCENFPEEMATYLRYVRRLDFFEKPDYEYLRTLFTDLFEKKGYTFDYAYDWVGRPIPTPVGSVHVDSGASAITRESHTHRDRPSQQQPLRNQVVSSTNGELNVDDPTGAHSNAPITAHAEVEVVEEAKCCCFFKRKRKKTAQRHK
Chain of ACVR1 (human) (Q04771 whole entry, looked up): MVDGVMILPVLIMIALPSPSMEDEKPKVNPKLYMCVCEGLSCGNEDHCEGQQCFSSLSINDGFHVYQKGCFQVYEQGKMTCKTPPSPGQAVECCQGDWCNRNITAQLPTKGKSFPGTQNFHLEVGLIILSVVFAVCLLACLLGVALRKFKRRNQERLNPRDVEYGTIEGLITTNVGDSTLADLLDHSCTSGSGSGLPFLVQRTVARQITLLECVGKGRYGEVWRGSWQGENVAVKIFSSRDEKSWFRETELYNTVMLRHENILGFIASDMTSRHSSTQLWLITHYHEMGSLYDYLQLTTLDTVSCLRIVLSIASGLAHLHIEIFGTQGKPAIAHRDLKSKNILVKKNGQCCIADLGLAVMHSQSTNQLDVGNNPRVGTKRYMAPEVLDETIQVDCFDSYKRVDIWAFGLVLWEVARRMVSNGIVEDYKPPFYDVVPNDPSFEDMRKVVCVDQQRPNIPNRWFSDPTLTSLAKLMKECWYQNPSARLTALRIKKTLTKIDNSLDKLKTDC

Q: For `O=C(Nc1cccc(Nc2cc(Nc3cccc(C(F)(F)F)c3)ncn2)c1)C1CC1`, which residual activity (RPS6KA4 KD2 (human)) is on record?
A: 100%

Q: And the residual activity (TGFBR1 (human))?
A: 97.4%

Q: And the residual activity (SGK2 (human))?
A: 99%

Q: And the residual activity (ACVR1 (human))?
A: 103%

Q: What about the residual activity (NEK1 (human)) of the same molecule?
A: 109%

Q: And the residual activity (RPS6KA1 KD1 KD2 (human))?
A: 95.1%

Q: What about the residual activity (IKBKB (human)) of the same molecule?
A: 100%

Q: And the residual activity (DCLK2 (human))?
A: 101%

Q: And the residual activity (CSNK1G1 (human))?
A: 94.8%

Q: What about the residual activity (SRMS (human)) of the same molecule?
A: 95.2%

Q: And the residual activity (BLK (human))?
A: 101%

Q: What about the residual activity (PDGFRB (human)) of the same molecule?
A: 101%

Q: And the residual activity (FGR (human))?
A: 96.4%

Q: What about the residual activity (CDK9 CCNT1 (human)) of the same molecule?
A: 97.2%

Q: And the residual activity (SRPK1 (human))?
A: 86.4%

Q: What about the residual activity (RPS6KA6 KD1 KD2 (human)) of the same molecule?
A: 96.6%

Q: And the residual activity (SRPK3 (human))?
A: 103%

Q: What about the residual activity (CSNK2A1 (human)) of the same molecule?
A: 92.6%

Q: And the residual activity (GRK5 (human))?
A: 109%

Q: What about the residual activity (BRSK1 (human)) of the same molecule?
A: 101%

Q: And the residual activity (CDK6 CCND1 (human))?
A: 99.1%

Q: What about the residual activity (CAMK1G (human)) of the same molecule?
A: 96.9%

Q: What about the residual activity (ABL1 (human)) of the same molecule?
A: 103%

Q: And the residual activity (CDK4 CCND3 (human))?
A: 105%

Q: And the residual activity (TXK (human))?
A: 97.1%

Q: And the residual activity (MAPK12 (human))?
A: 89.2%

Q: And the residual activity (ADRBK2 (human))?
A: 103%

Q: And the residual activity (NEK6 (human))?
A: 99.2%

Q: What about the residual activity (MAPKAPK5 (human)) of the same molecule?
A: 101%

Q: What about the residual activity (TYRO3 (human)) of the same molecule?
A: 85.4%

Q: What about the residual activity (STK3 (human)) of the same molecule?
A: 102%

Q: And the residual activity (AKT3 (human))?
A: 99.4%

Q: And the residual activity (NEK4 (human))?
A: 90.6%

Q: And the residual activity (EPHA7 (human))?
A: 101%

Q: And the residual activity (DYRK1B (human))?
A: 105%

Q: And the residual activity (CDK1 CCNB1 (human))?
A: 96.4%

Q: And the residual activity (MAPK1 (human))?
A: 101%

Q: What about the residual activity (DYRK4 (human)) of the same molecule?
A: 98%

Q: What about the residual activity (EPHA5 (human)) of the same molecule?
A: 106%

Q: What about the residual activity (DAPK1 (human)) of the same molecule?
A: 94.7%

Q: And the residual activity (PRKCH (human))?
A: 88.2%

Q: For `O=C1NC(=O)C(c2cn(CCCO)c3ncccc23)=C1c1cnccn1`, which residual activity (RPS6KA4 KD2 (human)) is on record?
A: 101%

Q: What about the residual activity (TGFBR1 (human)) of the same molecule?
A: 98.5%

Q: And the residual activity (SGK2 (human))?
A: 96.9%

Q: What about the residual activity (ACVR1 (human)) of the same molecule?
A: 97%

Q: What about the residual activity (NEK1 (human)) of the same molecule?
A: 91.9%

Q: And the residual activity (RPS6KA1 KD1 KD2 (human))?
A: 94.8%

Q: And the residual activity (IKBKB (human))?
A: 87.3%

Q: What about the residual activity (DCLK2 (human)) of the same molecule?
A: 90.1%

Q: What about the residual activity (CSNK1G1 (human)) of the same molecule?
A: 101%

Q: And the residual activity (SRMS (human))?
A: 95.9%

Q: And the residual activity (BLK (human))?
A: 87.1%

Q: What about the residual activity (PDGFRB (human)) of the same molecule?
A: 102%

Q: What about the residual activity (FGR (human)) of the same molecule?
A: 108%

Q: What about the residual activity (CDK9 CCNT1 (human)) of the same molecule?
A: 88.3%

Q: And the residual activity (SRPK1 (human))?
A: 98%

Q: What about the residual activity (RPS6KA6 KD1 KD2 (human)) of the same molecule?
A: 73%

Q: What about the residual activity (SRPK3 (human)) of the same molecule?
A: 91.2%

Q: And the residual activity (CSNK2A1 (human))?
A: 78.9%

Q: And the residual activity (GRK5 (human))?
A: 116%

Q: And the residual activity (BRSK1 (human))?
A: 89.2%

Q: What about the residual activity (CDK6 CCND1 (human)) of the same molecule?
A: 83.4%

Q: And the residual activity (CAMK1G (human))?
A: 101%

Q: And the residual activity (ABL1 (human))?
A: 98.9%

Q: And the residual activity (CDK4 CCND3 (human))?
A: 95.9%

Q: What about the residual activity (TXK (human)) of the same molecule?
A: 75.3%

Q: What about the residual activity (MAPK12 (human)) of the same molecule?
A: 86.8%

Q: What about the residual activity (ADRBK2 (human)) of the same molecule?
A: 99.9%

Q: And the residual activity (NEK6 (human))?
A: 94.2%

Q: What about the residual activity (MAPKAPK5 (human)) of the same molecule?
A: 98.6%

Q: And the residual activity (TYRO3 (human))?
A: 93.7%

Q: What about the residual activity (STK3 (human)) of the same molecule?
A: 74.4%

Q: And the residual activity (AKT3 (human))?
A: 101%

Q: And the residual activity (NEK4 (human))?
A: 85.1%

Q: What about the residual activity (EPHA7 (human)) of the same molecule?
A: 105%

Q: And the residual activity (DYRK1B (human))?
A: 93.2%

Q: And the residual activity (CDK1 CCNB1 (human))?
A: 81.1%

Q: What about the residual activity (MAPK1 (human)) of the same molecule?
A: 81.9%

Q: And the residual activity (DYRK4 (human))?
A: 98.4%

Q: And the residual activity (EPHA5 (human))?
A: 99.4%

Q: And the residual activity (DAPK1 (human))?
A: 74.4%

Q: What about the residual activity (PRKCH (human)) of the same molecule?
A: 81.6%
